Columns and labels:
BT-474 [1] = assay: normalised viability (% of control), CellTiter-Blue; higher = more viable cells (about 100 = DMSO control); conditions: 100 nM; incubation time: 72 h
Procedure: (§1)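 DSRT, CellTiter-Blue viability, 72 h incubation. Signal is normalised to DMSO and benzethonium chloride controls. Value is the normalised response at dose 3.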

DU-4475 [2] = assay: as above; conditions: 10 nM; incubation time: 72 h
Procedure: as §1

HCC1599 [3] = assay: as above; conditions: 100 nM; incubation time: 72 h
Procedure: as §1

MDA-MB-453 [4] = assay: as above; conditions: 10 nM; incubation time: 72 h
Procedure: as §1

MFM-223 [5] = assay: as above; conditions: 100 nM; incubation time: 72 h
Procedure: as §1

SK-BR-3 [6] = assay: as above; conditions: 100 nM; incubation time: 72 h
Procedure: as §1

BT-474 [7] = assay: normalised viability (% of control), CellTiter-Blue; higher = more viable cells (about 100 = DMSO control); conditions: incubation time: 72 h
How it was run: (§2)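 After 72 h on compound-loaded 384-well plates, breast cancer cell lines received 2.5 µl CellTiter-Blue reagent for 2 h at 37 °C. Fluorescence at 560/590 nm was scaled per plate so that vehicle was 100 and a positive kill control was 0. The value stands for normalised viability at a single listed concentration of the series.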

BT-549 = assay: as above; conditions: incubation time: 72 h
How it was run: as §2

CAL-120 = assay: as above; conditions: incubation time: 72 h
How it was run: as §2

CAL-148 = assay: as above; conditions: incubation time: 72 h
How it was run: as §2

CAL-51 = assay: as above; conditions: incubation time: 72 h
How it was run: as §2

CAL-85-1 = assay: as above; conditions: incubation time: 72 h
How it was run: as §2

DU-4475 [8] = assay: as above; conditions: incubation time: 72 h
How it was run: as §2

HCC1143 = assay: as above; conditions: incubation time: 72 h
How it was run: as §2

HCC1599 [9] = assay: as above; conditions: incubation time: 72 h
How it was run: as §2

HCC1937 = assay: as above; conditions: incubation time: 72 h
How it was run: as §2

HDQ-P1 = assay: as above; conditions: incubation time: 72 h
How it was run: as §2

Hs578T [10] = assay: as above; conditions: incubation time: 72 h
How it was run: as §2

MDA-MB-231 = assay: as above; conditions: incubation time: 72 h
How it was run: as §2

MDA-MB-436 = assay: as above; conditions: incubation time: 72 h
How it was run: as §2

MDA-MB-453 [11] = assay: as above; conditions: incubation time: 72 h
How it was run: as §2

MDA-MB-468 = assay: as above; conditions: incubation time: 72 h
How it was run: as §2

MFM-223 [12] = assay: as above; conditions: incubation time: 72 h
How it was run: as §2

SK-BR-3 [13] = assay: as above; conditions: incubation time: 72 h
How it was run: as §2

Hs578T [14] = assay: drug sensitivity score (DSS), CellTox Green (DSS (AUC-based score)); higher = stronger drug effect (viability inhibition or cytotoxicity); extreme values may be limits of the assay; conditions: incubation time: 72 h
How it was run: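 Using 20 µl of cell suspension per well, breast cancer cell lines were seeded into 384-well plates pre-loaded with compound at 5 concentrations in 10-fold steps across a compound-specific 10,000-fold range. Incubation lasted 72 h, after which CellTox Green fluorescence at 485/520 nm and then CellTiter-Glo luminescence, following 10 min at room temperature, were recorded. Each plate was normalised to 0.1 % DMSO and a positive kill control before the drug sensitivity score was derived from the area under the fitted dose-response curve.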

CN(C)C/C=C/C(=O)Nc1cc2c(Nc3ccc(F)c(Cl)c3)ncnc2cc1O[C@H]1CCOC1 [Afatinib]
Conditions	drug sensitivity score	normalised viability [%]
BT-474 [1]	–	34.8
DU-4475 [2]	–	95.1
HCC1599 [3]	–	84.6
Hs578T [14]	1.68	–
MDA-MB-453 [4]	–	81.4
MFM-223 [5]	–	84.8
SK-BR-3 [6]	–	15.2

normalised viability [%]
Conditions	3 nM	10 nM	30 nM	100 nM	1000 nM	10000 nM
BT-474 [7]	–	72.1	–	–	33.8	16
BT-549	–	87.1	–	–	92.9	11.7
CAL-51	114	–	99.8	97.7	–	–
CAL-85-1	83.2	–	57.4	54.2	–	–
CAL-120	–	71.8	–	–	66.1	13.2
CAL-148	83.2	–	72.9	72.5	–	–
DU-4475 [8]	95.1	–	83.2	85.8	–	–
HCC1143	–	66	–	–	70	42.9
HCC1599 [9]	–	97.4	–	–	77.6	79.5
HCC1937	–	83.2	–	–	67.5	13.9
HDQ-P1	92.5	–	76.9	77.1	–	–
Hs578T [10]	–	98	–	–	95.7	14.4
MDA-MB-231	–	89.1	–	–	74.2	7.48
MDA-MB-436	–	90.8	–	–	103	17.3
MDA-MB-453 [11]	104	–	67	46.6	–	–
MDA-MB-468	–	99.1	–	–	56.9	11.5
MFM-223 [12]	–	88.7	–	–	83.4	25.1
SK-BR-3 [13]	–	52.1	–	–	19.3	12.3
